Series [1] has as its system MRSA (ATCC 12493) biofilm. The class given is cell-based, methicillin-resistant Staphylococcus aureus. Particulars: ATCC 12493, 24 h. On the procedure:
(§1) To test the anti-biofilm ability of PSTO2 and its analogues, three types of microorganisms (S. aureus ATCC® 6538, E. coli ATCC® 8739, and MRSA NCTC® 12493) were chosen. Tryptic soy broth (TSB) and Lysogeny broth (LB) were used to culture microorganisms. The peptide was dissolved in an autoclaved PBS solution and diluted into concentrations ranging from 51,200 µM to 100 µM. One µL of peptide solution of each concentration was added into a 96-well plate with 100 µL bacterium at 5 × 10^5 CFU/mL. The plate was incubated at 37 °C for 24 h, with shaking at 200 rpm. After overnight incubation, the planktonic bacteria were washed up. Then, 100 µL of methanol was used to fix the biofilms onto the bottom, and 100 µL of 0.1% crystal violet solution (Sigma-Aldrich, Gillingham, UK) was added to each well to stain the biofilms. After drying, 160 µL of acetic acid (30% in deionised water, Sigma-Aldrich, UK) was added to each well to dissolve the shaded parts. The absorbance was detected with the Synergy HT plate reader at λ = 595 nm.
(§2) For the MBEC assay, 100 µL of the bacterium of 5 × 10^5 CFU/mL was transferred into an empty 96-well plate, and the plate was incubated at 37 °C for 24 h to obtain the biofilms primarily. Then, the peptide solution from 512 µM to 1 µM was transferred into a corresponding well, followed by 24 h incubation at 37 °C, with shaking at 200 rpm. After this, the plate was handled using the identical method to the plate in the MBIC assay, and the absorbance of each well was detected with the Synergy HT plate reader at λ = 595 nm. The minimum concentration at which the peptide can eradicate the existing biofilm was recorded as the MBEC value.

Series [2] deals with P. aeruginosa (ATCC 9027). Type of series: cell-based, Pseudomonas aeruginosa. Particulars: ATCC 9027, 24 h. An excerpt: (§3) Seven microorganism strains were used to preliminarily evaluate the antimicrobial activity of PSTO2 and its analogues, including Staphylococcus aureus (S. aureus) (ATCC® 6538), methicillin-resistant Staphylococcus aureus (MRSA) (NCTC® 12493), Enterococcus faecalis (E. faecalis) (NCTC® 12697), E. coli (ATCC® 8739), Klebsiella pneumonia (K. pneumonia) (ATCC® 43816), Pseudomonas aeruginosa (P. aeruginosa) (ATCC® CRM 9027), Acinetobacter baumanni (A. baumanni) (BAA® 747), and Candida albicans (C. albicans) (ATCC® 10231). In this study, the strains were cultured in Mueller–Hinton broth (MHB), nutrient broth (NB), and yeast–peptone–dextrose broth (YPD-B) correspondingly at 37 °C, with shaking at 120 rpm. Each peptide was dissolved from 128 μM to 1 μM and mixed with the bacterium at 5 × 10^5 CFU/mL. In this process, bacteria with culture medium were used as the growth control group; PBS was set up as the vehicle control group; sterile culture medium was used as the blank control group; and Norfloxacin at a concentration of 2 mg/mL and amphotericin B at a concentration of 1 mg/mL were set up as the positive control group for bacteria and fungi, respectively.
(§4) After being incubated for 24 h, a Synergy HT plate reader (Bio-Tek, Shoreline, WA, USA) was used to detect the absorbance of each well in the 96-well plate at λ = 550 nm. The concentration at which no visible turbidity could be recorded was the MIC value. Beginning from the MIC value, 10 µL of solution in each clear well was dropped on the sterile agar plates. The plate was checked the next day for colony formation, and the lowest concentration at which no colony growing was recorded as an MBC value.

In the next series the test system is MRC-5. Type of series: cell-based. Particulars: 24 h. On the procedure: (§5) The percentage of cancer cell survival after being treated with peptides was assessed with 3-(4,5-dimethylthiazol-2-yl-)-2,5-diphenyltetrazolium bromide (MTT). The principle is the reduction process of the yellow tetrazolium to DMSO-soluble formazan crystals caused by the metabolic capability of living cells. All the cancerous and normal cells were obtained from the American Type Culture Collection (Rockville, VA, USA). Human lung cancer NCI-H838 and NCI-H460 were cultured in Roswell Park Memorial Institute (RPMI)-1640 medium (Gibco, Paisley, UK) and mixed with 10% (v/v) fetal bovine serum (FBS) (Gibco, Campinas, Brazil) and 1% penicillin–streptomycin (Gibco, Grand Island, NY, USA) 89/10/1 v/v/v). U251MG and MCF-7 were cultured in Dulbecco’s Modified Eagle medium (DMEM) (Gibco, Paisley, UK) and mixed with 10% FBS and 1% penicillin–streptomycin. HCT 116 was cultured in McCoy’s 5A (modified) medium (Gibco, Paisley, UK) and mixed with 10% FBS and 1% penicillin–streptomycin. MRC-5 and HaCat were cultured in Minimum Essential Medium (MEM) (Gibco, Paisley, UK) and mixed with 10% FBS and 1% penicillin–streptomycin. Cells were cultured and seeded in a 96-well plate at a density of 8000 cells/well with the corresponding medium and incubated for 24 h at 37 °C with 5% CO2. After 24 h of incubation, the cells were starved with a serum-free medium for 4 h at 37 °C. Then, the cells were incubated with different concentrations of peptide solution in a serum-free medium from 1 nM to 100 µM at 37 °C for 24 h. Meanwhile, triton X-100 (0.1%) (Sigma-Aldrich, St. Louis, MO, USA) and PBS were chosen as positive and negative controls. After 10 µL of MTT (5 mg/mL) was added to each well away from light and incubated at 37 °C for 2 h, the formazan generated by mitochondria was dissolved with DMSO. The absorbance was detected at a wavelength of 570 nm by a Synergy HT plate reader (Bio-Tek, Shoreline, WA, USA).

The next series has as its system HaCat. Type of series: cell-based. Particulars: 24 h. As for the experimental part: as §5
The test system of series [3] is S. aureus (ATCC 6538) biofilm. Type of series: cell-based, Staphylococcus aureus. Particulars: ATCC 6538, 24 h. As for the experimental part: as §1, §2
The next series has as its system E. coli (ATCC 8739). The class given is cell-based, Escherichia coli. Particulars: ATCC 8739, 24 h.
Description: as §3, §4

For another series, the system named is MRSA (NCTC 12493). The class given is cell-based, methicillin-resistant Staphylococcus aureus. Particulars: NCTC 12493, 24 h.
Description: as §3, §4

Another series concerns U251MG. The class given is cell-based, human. Particulars: 24 h. As for the experimental part:
as §5

The next series deals with NCI-H460. Type of series: cell-based, human. Particulars: 24 h. On the procedure: as §5
The next series deals with NCI-H838. Type of series: cell-based, human. Particulars: 24 h. As for the experimental part:
as §5

In a further series the test system is MCF-7. The class given is cell-based, human. Particulars: 24 h. On the procedure:
as §5

Where a SMILES comes first, the peptide text is derived from it. Where no end group is shown, it is not given here. [ ]: non-standard residue; d: D form.

Turning to `CC[C@H](C)[C@H](NC(=O)[C@H](C)NC(=O)[C@@H](CCCCN)NC(=O)[C@@H]1CCCN1C(=O)[C@@H](NC(=O)[C@H](CC(C)C)NC(=O)[C@H](CO)NC(=O)[C@H](CC(C)C)NC(=O)[C@@H](N)Cc1ccccc1)[C@@H](C)CC)C(=O)N[C@@H](CCCCN)C(=O)N[C@@H](C)C(=O)N[C@H](C(=O)N[C@@H](CCCCN)C(=O)N[C@@H](C)C(=O)N[C@@H](CC(C)C)C(=O)N[C@@H](C)C(=O)N[C@@H](CCCCN)C(=O)N[C@H](CCCCN)C(=O)N[C@@H](CC(C)C)C(N)=O)C(C)C` [SR2D10] (H-FLSLIP[dK]AIKAVKALAK[dK]L-NH2), the MBEC in [1] and in series [3] was 32 µM throughout. For the same compound, the MBIC in series [1] was determined as 16 µM; in [3], 4 µM. In addition, the MBC – broadly, the smallest concentration meeting the test's criterion for killing – in series [2] was 32 µM; in the series on E. coli (ATCC 8739), 2 µM; in the series with MRSA (NCTC 12493) it was 1/1 μM. Also, the MIC (as a rule, the lowest concentration found to suppress growth) in series [2] was 32 µM; with E. coli (ATCC 8739) it was 2 µM. Besides, the IC50 (usually the concentration at which inhibition is half-maximal) in the series with MRC-5 turned out to be 74.39 µM; in the series with HaCat it was 84.03 µM; with U251MG, 16.1 µM; with NCI-H460 it was 7.7 µM; with NCI-H838, 9.49 µM; in the series with MCF-7 it was 26.4 µM.
Consider `CC[C@H](C)[C@H](NC(=O)[C@H](C)NC(=O)[C@@H](CCCCN)NC(=O)[C@@H]1CCCN1C(=O)[C@@H](NC(=O)[C@H](CC(C)C)NC(=O)[C@H](CO)NC(=O)[C@H](CC(C)C)NC(=O)[C@@H](N)Cc1ccccc1)[C@@H](C)CC)C(=O)N[C@@H](CCCCN)C(=O)N[C@@H](C)C(=O)N[C@H](C(=O)N[C@@H](CO)C(=O)N[C@@H](C)C(=O)N[C@@H](CC(C)C)C(=O)N[C@@H](C)C(=O)N[C@@H](CCCCN)C(=O)N[C@@H](CCCCN)C(=O)N[C@@H](CC(C)C)C(N)=O)C(C)C` [SRD7] (H-FLSLIP[dK]AIKAVSALAKKL-NH2), for which the MBEC in [1] is 16 µM; in [3] it was 32 µM. The MBIC in series [1] worked out at 4 µM; in series [3], 2 µM. For the same compound, the figures for the MBC (in [2]; in the series on E. coli (ATCC 8739); in the series on MRSA (NCTC 12493)) were 16 µM, 2 µM and 2 µM, respectively. Also, the figures for the MIC (in [2]; with E. coli (ATCC 8739); in the series on MRSA (NCTC 12493)) were 16 µM, 2 µM and 1 µM, respectively. Further, the IC50 stood at 77.28 µM in the series with MRC-5; 77.89 µM in the series on HaCat; 13.9 µM in the series on U251MG; 2.31 µM in the series with NCI-H460; 3.32 µM in the series on NCI-H838; 15.2 µM in the series with MCF-7.
On to FLSLIPKAIKAVKALAKKL-NH2 [SR2], for which the MBEC in series [1] and in series [3] was 16 µM each time. For the same compound, the MBC in series [2] came to 32 µM; in the series with E. coli (ATCC 8739), 2 µM; in the series on MRSA (NCTC 12493) it was 2 µM. Besides, the IC50 in the series on MRC-5 was 6.56 µM; with HaCat, 3.48 µM; in the series with U251MG it was 6.72 µM; with NCI-H460, 5.92 µM; in the series with NCI-H838, 3.13 µM; in the series with MCF-7, 7.83 µM. Also, the MBIC in series [3] came to 2 µM. The MIC with E. coli (ATCC 8739) and in the series on MRSA (NCTC 12493) was 2 µM in each case.
FLSLIPKAIKAVSALAKKL-NH2 [SR]: the MBEC in series [1] and in [3] was 16 µM in each case. Besides, the MBC in [2] is 32 µM; in the series on E. coli (ATCC 8739) it was 2 µM; in the series on MRSA (NCTC 12493), 2 µM. Moreover, the IC50 in the series with MRC-5 came out at 6.98 µM; in the series on HaCat, 4.13 µM; with U251MG, 9.65 µM; in the series with NCI-H460, 3.07 µM; in the series on NCI-H838, 2.88 µM; in the series with MCF-7, 6.05 µM. The MIC in the series with E. coli (ATCC 8739) and in the series with MRSA (NCTC 12493) was 2 µM throughout.
